Measured values reported in patent US20090111868A1 (priority 2004, published 2009).
Entries after “also recorded” stand apart in the source; their conditions may differ. Like-named read-outs stand apart in the source and are kept apart here.

Legend:
[1] = biological target: maxi-K potassium channels (Homo sapiens, UniProt Q12791); settings: cited from earlier work
rat stroke models = settings: cited from earlier work
BKCa channels [2] = biological target: T1, BKCa channels (Homo sapiens, UniProt Q12791); settings: cited from earlier work
[3] = biological target: BKCa channel α and β subunits (Homo sapiens, UniProt Q12791); settings: α and β subunits co-expressed; cited from earlier work
[4] = not told; cited from earlier work
BKCa channel (mSlo) = biological target: T2, BKCa channel (mSlo) (Mus musculus, UniProt Q08460); assay: Whole cell patch clamp of BKCa channel in stably transfected mSlo HEK293 cells; assay type: cell-based, murine
T2 construct: expressed in transfected cells
Protocol: (A-B) Representative current traces from whole cell patch with 5 mM EGTA in patch pipette. […] Voltage steps are shown at the right of each tracing; note different maximum voltage steps +200 mV (upper) vs. +120 mV (lower). […] Tail currents are in opposite direction due to final voltage step (+60 upper, −60 mV left). (C) G-V curves were constructed for indicated conditions utilizing tail analysis (Xia, et al., Multiple regulatory sites in large-conductance calcium-activated potassium channels. Nature, 2002. 418(6900):880-4). Solid lines were fitted with Boltzmann function (Origin 7.5). […] Representative of>30 similar experiments with rat and murine (pictured) s1o. (D-E) Stable mslo HEK293 cells were studied in whole cell configuration with pipette solution containing 5 mM EGTA (˜0 free Ca^2+).
(§1) Current was monitored with ramp protocol; holding potential −60 mV, with ramp from −80 mV to +150 mV over 500 ms. Extracellular application of NS-1619 (10 μM) increased current as previously described (Olesen, et al., Selective activation of Ca(2+)-dependent K+channels by novel benzimidazolone. Eur. J. Pharmacol., 1994. 251(1):53-9). […] Analysis performed using tail analysis with normalization as previously described (Xia, et al., Multiple regulatory sites in large-conductance calcium-activated potassium channels. Nature, 2002. 418(6900):880-4). (B) HEK cells co-expressing α and β1 subunits were studied in whole cell configuration with 5 mM EGTA (intra-pipette). […] (C) Human VSMC were studied in outside-out configuration, utilizing single channel recordings, recorded at +60 mV. […] Identification of the BKCa channel was determined by conductance and inhibition by iberiotoxin and TEA. […] Murine femoral arterial rings from were isolated and placed in a wire myograph. […] Figure representative of 4 similar experiments. Error bars are SEM; * p<0.001.

Ca^2+ channel = settings: cited from earlier work
Cl^− channel = settings: cited from earlier work
[5] = tested on: porcine coronary myocytes; settings: 30 μM; through ryanodine receptor sensitive storage sites; cited from earlier work
hypertensive rat model = hypertensive rat model compared to controls; cited from earlier work
BKCa channel [6] = biological target: T3, BKCa channel (Sus scrofa, UniProt O18866); settings: cited from earlier work
T3 construct: host or cells: porcine coronary artery cells (endogenous)

[7] = tested on: Murine femoral arterial rings; assay: Phenylephrine induced constriction of femoral arterial rings, wire myograph; assay type: cell-based
Protocol: as §1

BKCa channel [8] = biological target: BKCa channel (Mus musculus, UniProt Q08460); assay: Single channel recordings of BKCa channel, outside-out and inside-out patches (cell-free configuration); assay type: biochemical; settings: for inhibition of rottlerin channel activation: not shown
Protocol: Amplitude histograms are shown on the right. […] Ca^2+ was maintained at 0 (virtual; actual<20 nM) through dialysis using patch pipette. Since cellular compartments are excluded from patch and outside-out patch perfused locally with 0 Ca^2+, activation is Ca^2+-independent. […] Amplitude histograms are shown on the right.

Ca^2+ sparks (RyR) = settings: cited from earlier work
rats = settings: purified rottlerin 10-20 mg/kg/day × 6 days; cited from earlier work
[9] = biological target: T4, glutamate-aspartate transporter (GLAST) (Homo sapiens, UniProt P43003); settings: cited from earlier work
T4 construct: host or cells: astrocytes (from the cited title only)

casein kinase II = casein kinase II (Homo sapiens, UniProt P68400); settings: read-out: IC50 for casein kinase II; in vitro; cited from earlier work
guinea pigs = settings: purified rottlerin 10-20 mg/kg/day × 6 days; cited from earlier work
3T3-L1 adipocytes = settings: read-out: IC50, inhibition of insulin-induced glucose uptake; cited from earlier work
[10] = tested on: canine subarachnoid hemorrhage model; settings: rottlerin 5 μM injected into the cistema magna; cited from earlier work
PKA = PKA (Homo sapiens, UniProt P17612); settings: read-out: IC50 for PKA; in vitro; cited from earlier work
BKCa channels [11] = biological target: T1, BKCa channels; assay: Single channel recordings (outside-out) in human VSMC; assay type: cell-based; parameters: endogenous in cells; host or cells: human vascular smooth muscle cells (VSMC) grown in vitro; settings: recorded at +60 mV
Protocol: as §1

[12] = tested on: mitochondria in intact cells; settings: cited from earlier work
other PKC isozymes = settings: in vitro; cited from earlier work
[13] = biological target: T5, BKCa channel mSlo and β1 subunit (Mus musculus, UniProt Q08460); assay: Whole cell recording in HEK cells co-expressing α and β1 subunits; assay type: cell-based, murine
T5 construct: expressed in transfected cells; host or cells: HEK293
Protocol: as §1

PKCα = PKCα (Homo sapiens, UniProt P17252); settings: rottlerin 20 μM; 0.1 mM (or 0.01 mM) ATP; phosphatidylserine; histone H1 or myelin basic protein substrate; cited from earlier work
PKCδ [14] = biological target: T6, PKCδ (Homo sapiens, UniProt Q05655); settings: rottlerin 20 μM; 0.1 mM (or 0.01 mM) ATP; phosphatidylserine; histone H1 or myelin basic protein substrate; cited from earlier work
PKCδ [15] = biological target: T6, PKCδ; settings: more recent data; cited from earlier work
PKCδ [16] = biological target: T6, PKCδ; settings: read-out: IC50 for PKCδ; in vitro; cited from earlier work
maxi-K channels = maxi-K channels (Homo sapiens, UniProt Q12791); settings: applied to the cytoplasmic side; cited from earlier work
maxi-K channels, sequence (Q12791 whole entry): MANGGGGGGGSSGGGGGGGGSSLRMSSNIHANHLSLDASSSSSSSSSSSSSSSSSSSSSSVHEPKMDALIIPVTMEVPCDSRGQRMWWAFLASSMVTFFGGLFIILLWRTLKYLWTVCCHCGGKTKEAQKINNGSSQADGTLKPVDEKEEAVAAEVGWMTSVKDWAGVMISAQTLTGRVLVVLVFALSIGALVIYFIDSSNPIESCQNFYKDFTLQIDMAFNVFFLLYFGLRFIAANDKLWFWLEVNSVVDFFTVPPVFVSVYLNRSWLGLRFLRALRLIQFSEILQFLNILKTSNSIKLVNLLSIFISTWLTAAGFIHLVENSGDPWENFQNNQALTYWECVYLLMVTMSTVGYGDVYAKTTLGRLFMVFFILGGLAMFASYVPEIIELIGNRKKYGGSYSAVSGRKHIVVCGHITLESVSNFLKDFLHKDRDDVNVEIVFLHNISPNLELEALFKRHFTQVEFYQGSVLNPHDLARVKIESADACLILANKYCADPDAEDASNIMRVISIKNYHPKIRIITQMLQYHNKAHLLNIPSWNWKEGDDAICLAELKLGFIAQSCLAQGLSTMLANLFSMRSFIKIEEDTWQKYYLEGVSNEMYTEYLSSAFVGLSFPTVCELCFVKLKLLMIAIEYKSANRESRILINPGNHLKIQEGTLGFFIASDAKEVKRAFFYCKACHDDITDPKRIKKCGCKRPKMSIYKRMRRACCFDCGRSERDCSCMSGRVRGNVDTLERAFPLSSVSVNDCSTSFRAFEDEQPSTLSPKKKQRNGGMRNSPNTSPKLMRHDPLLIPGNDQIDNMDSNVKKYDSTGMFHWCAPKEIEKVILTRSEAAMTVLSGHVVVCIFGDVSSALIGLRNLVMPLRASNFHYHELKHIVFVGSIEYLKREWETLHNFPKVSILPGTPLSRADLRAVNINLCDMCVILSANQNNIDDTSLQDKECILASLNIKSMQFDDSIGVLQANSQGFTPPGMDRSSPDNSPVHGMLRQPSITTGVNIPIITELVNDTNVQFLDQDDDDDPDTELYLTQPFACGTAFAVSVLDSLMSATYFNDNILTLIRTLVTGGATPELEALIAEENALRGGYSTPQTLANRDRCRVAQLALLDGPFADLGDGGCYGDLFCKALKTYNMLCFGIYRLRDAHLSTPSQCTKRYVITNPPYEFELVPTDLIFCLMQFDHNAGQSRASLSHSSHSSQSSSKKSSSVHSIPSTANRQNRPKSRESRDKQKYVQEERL

T6 sequence (Q05655 whole entry): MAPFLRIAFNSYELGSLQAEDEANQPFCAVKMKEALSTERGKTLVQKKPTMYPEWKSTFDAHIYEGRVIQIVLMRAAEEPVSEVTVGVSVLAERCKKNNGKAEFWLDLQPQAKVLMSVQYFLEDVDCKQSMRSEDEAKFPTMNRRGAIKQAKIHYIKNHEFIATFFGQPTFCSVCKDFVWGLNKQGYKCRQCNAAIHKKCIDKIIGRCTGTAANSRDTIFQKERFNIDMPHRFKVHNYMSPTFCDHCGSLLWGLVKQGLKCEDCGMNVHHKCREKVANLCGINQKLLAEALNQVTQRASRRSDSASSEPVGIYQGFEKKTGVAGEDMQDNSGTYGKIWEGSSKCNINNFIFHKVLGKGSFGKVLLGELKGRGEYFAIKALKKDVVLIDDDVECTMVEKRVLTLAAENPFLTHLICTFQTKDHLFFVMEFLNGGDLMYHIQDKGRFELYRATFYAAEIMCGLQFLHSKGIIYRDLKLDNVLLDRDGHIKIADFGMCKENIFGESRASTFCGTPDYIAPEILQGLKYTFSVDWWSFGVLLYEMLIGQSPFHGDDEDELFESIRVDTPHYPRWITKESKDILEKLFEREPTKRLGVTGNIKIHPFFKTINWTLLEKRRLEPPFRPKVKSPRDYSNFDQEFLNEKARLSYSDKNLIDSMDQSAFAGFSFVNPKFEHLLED
T1 sequence (Q12791 whole entry): as the sequence (Q12791 whole entry) above
T2 sequence (Q08460 whole entry): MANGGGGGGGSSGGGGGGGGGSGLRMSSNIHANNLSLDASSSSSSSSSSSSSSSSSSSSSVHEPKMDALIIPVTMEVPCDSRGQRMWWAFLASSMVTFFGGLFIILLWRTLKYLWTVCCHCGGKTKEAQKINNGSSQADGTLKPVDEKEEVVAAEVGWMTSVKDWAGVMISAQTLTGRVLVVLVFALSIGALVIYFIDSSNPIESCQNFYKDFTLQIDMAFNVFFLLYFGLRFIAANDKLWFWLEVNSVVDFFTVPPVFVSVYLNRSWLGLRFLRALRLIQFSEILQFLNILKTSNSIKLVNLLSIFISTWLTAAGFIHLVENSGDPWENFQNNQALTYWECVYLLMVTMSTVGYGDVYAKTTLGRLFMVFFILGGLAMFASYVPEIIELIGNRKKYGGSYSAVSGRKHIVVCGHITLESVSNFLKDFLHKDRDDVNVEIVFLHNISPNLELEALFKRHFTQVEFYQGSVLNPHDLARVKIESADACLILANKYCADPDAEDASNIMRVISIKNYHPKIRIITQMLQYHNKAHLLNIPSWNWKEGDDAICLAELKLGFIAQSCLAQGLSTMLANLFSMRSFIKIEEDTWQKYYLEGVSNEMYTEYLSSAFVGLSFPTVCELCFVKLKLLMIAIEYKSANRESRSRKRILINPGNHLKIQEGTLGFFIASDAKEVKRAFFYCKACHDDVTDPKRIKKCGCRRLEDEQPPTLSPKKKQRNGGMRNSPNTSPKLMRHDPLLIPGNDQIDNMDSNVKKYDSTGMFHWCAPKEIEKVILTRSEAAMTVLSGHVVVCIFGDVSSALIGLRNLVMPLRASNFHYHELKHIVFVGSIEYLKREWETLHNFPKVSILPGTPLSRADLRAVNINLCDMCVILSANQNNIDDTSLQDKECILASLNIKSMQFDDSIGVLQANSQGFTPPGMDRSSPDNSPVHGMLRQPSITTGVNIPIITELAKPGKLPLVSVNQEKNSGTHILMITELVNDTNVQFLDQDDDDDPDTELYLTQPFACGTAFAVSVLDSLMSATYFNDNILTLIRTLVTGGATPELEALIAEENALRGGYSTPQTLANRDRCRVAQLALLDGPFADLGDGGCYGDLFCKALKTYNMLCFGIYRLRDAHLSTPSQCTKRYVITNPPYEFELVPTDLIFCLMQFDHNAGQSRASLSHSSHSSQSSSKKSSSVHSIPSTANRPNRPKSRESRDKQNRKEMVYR
BKCa channel (Mus musculus, UniProt Q08460), sequence (Q08460 whole entry, the tested form may be a part): as the sequence (Q08460 whole entry) above
T3 sequence (O18866 whole entry): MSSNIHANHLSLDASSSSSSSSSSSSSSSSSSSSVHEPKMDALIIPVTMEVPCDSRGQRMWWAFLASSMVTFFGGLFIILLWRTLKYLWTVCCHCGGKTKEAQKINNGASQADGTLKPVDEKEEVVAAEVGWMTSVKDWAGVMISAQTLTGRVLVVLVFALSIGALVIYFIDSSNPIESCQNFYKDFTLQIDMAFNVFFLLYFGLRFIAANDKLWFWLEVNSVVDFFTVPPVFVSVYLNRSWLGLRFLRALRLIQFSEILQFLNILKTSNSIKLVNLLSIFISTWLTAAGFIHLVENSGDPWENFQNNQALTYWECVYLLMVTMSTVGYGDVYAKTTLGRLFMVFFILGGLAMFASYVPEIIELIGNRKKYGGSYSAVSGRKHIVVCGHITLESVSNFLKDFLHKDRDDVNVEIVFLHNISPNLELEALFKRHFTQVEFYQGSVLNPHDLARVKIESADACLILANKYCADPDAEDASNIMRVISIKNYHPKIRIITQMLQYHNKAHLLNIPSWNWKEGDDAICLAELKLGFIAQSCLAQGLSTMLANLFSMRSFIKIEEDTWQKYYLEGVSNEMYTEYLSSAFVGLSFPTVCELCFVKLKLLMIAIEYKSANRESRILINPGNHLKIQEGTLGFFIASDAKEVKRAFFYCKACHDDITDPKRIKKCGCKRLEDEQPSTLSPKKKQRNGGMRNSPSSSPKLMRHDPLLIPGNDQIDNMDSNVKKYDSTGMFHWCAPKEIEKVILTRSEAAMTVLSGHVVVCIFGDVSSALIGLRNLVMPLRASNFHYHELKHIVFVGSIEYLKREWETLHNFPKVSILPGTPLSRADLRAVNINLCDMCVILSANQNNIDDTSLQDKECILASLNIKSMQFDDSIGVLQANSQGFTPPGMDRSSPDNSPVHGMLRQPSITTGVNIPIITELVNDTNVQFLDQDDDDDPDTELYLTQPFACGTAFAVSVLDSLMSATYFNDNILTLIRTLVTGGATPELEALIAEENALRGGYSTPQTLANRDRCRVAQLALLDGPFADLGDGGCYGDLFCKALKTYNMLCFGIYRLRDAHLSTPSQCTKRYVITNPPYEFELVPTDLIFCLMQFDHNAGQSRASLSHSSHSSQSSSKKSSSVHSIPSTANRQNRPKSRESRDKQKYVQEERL
maxi-K potassium channels, sequence (Q12791 whole entry): as the sequence (Q12791 whole entry) above
T5 sequence (Q08460 whole entry): as the sequence (Q08460 whole entry) above
T5 sequence (Q16558 whole entry partner): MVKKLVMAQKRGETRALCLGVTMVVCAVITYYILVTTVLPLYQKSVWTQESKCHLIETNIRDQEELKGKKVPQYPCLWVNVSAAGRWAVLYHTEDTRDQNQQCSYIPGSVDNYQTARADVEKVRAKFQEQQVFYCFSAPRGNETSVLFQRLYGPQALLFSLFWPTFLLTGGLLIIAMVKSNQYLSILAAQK
BKCa channel α and β subunits, sequence (Q12791 whole entry): as the sequence (Q12791 whole entry) above
BKCa channel α and β subunits, sequence (Q16558 whole entry partner): as the sequence (Q16558 whole entry partner) above

Compound: COc1ccc(Cl)cc1[C@]1(F)C(=O)Nc2cc(C(F)(F)F)ccc21 [BMS-204352]
- effect on current ([1]; 50 nM intracellular Ca2+): almost no effect
- effect on current ([1]; higher intracellular Ca2+ concentrations): progressively greater increases in current
- brain infarct size (rat stroke models): reduction in brain infarct size

Compound: CC1(C)C[C@@H](O)[C@]2(C)CC[C@]3(C)C(=CC[C@@H]4[C@@]5(C)CC[C@H](O[C@@H]6O[C@H](C(=O)O)[C@@H](O)[C@H](O)[C@H]6O[C@@H]6O[C@H](CO)[C@H](O)[C@H](O)[C@H]6O)[C@](C)(CO)[C@@H]5CC[C@]43C)[C@@H]2C1 [soyasaponin III]
- BKCa channel activation (BKCa channels [2]): activate BKCa channels

Compound: dehydrosoyasaponin-I [DHS-I]
- channel activity [3]: increases channel activity
- membrane permeability [4]: poor
- BKCa channel activation (BKCa channels [2]): activate BKCa channels

Compound: O=c1[nH]c2cc(C(F)(F)F)ccc2n1-c1cc(C(F)(F)F)ccc1O [NS-1619]
- peak K+ current (BKCa channel (mSlo)): activated
- Ca2+ channel (Ca^2+ channel): inhibits
- Cl- channel (Cl^− channel): inhibits
- intracellular Ca2+ concentration [5]: increase intracellular Ca^2+ concentration
- efficacy in mediating vascular relaxation (hypertensive rat model): diminished

Compound: O=C(Nc1cccc(C(F)(F)F)c1)Nc1cc(Cl)ccc1O [NS1608]
- effect at higher concentrations (bell shaped) (BKCa channel [6]; 50 μM): inhibitory effect
- concentration of maximum BKCa channel activation (BKCa channel [6]; porcine coronary artery cells): 5 to 10 µM
- minimum effective concentration, BKCa channel activation (BKCa channel [6]; porcine coronary artery cells): 0.5 µM

Compound: CC[N+](CC)(CC)CC [TEA, reference compound]
- inhibition of rottlerin induced BKCa activation (BKCa channel (mSlo); TEA 5 mM): reversibly inhibited
- inhibition of the rottlerin mediated effect on contraction ([7]; TEA): inhibited
- inhibition of rottlerin channel activation (BKCa channel [8]): can be inhibited

Compound: Ryanodine
- reduction of dilation to forskolin (Ca^2+ sparks (RyR)): 80%

Compound: iberiotoxin: inhibitor used to identify the BKCa channel (QFTDVDCSVSKECWSVCKDLFGVDRGKCMGKKCRCYQ; UniProt P24663 1-37, looked up) [reference compound]
- inhibition of rottlerin channel activation (BKCa channel [8]): can be inhibited

Compound: CC(=O)c1c(O)c(C)c(O)c(Cc2c(O)c3c(c(C(=O)/C=C/c4ccccc4)c2O)OC(C)(C)C=C3)c1O [rottlerin, 5,7-dihydroxy-2,2-dimethyl-6-(2,4,6-trihydroxy-3-methyl-5-acetylbenzyl)-8-cinnamoyl-1,2-chromene]
- fertility rate (rats): reduce the fertility rate
- BKCa channel activity on extracellular exposure (BKCa channel (mSlo); 0.5 μM via local perfusion after 25 min intracellular dialysis): significantly increased
- BKCa channel activity/current on intracellular dialysis (BKCa channel (mSlo); 20 μM rottlerin in patch pipette, 5 mM EGTA, over 25 min): minimal effect; also recorded: only a relatively small effect
- tail currents (slowing of deactivation) (BKCa channel (mSlo); after exposure to rottlerin (FIG. 4: 0.5 μM extracellular, 5 mM EGTA in pipette)): significantly prolonged; also recorded: markedly prolonged
- BKCa channel activation on local perfusion (BKCa channel (mSlo); extracellular, pipette 5 mM EGTA (~0 free Ca2+)): activated channel
- current after NS-1619 administration (BKCa channel (mSlo); rottlerin 0.5 μM added after NS-1619 (10 μM), 0 Ca2+): incrementally increased current
- BKCa channel activity (BKCa channel (mSlo); rottlerin ≦100 nM, non-phosphorylated conditions, non-Ca2+ dependent, reversible): dramatically increased
- capacity of GLAST glutamate transporter [9]: decrease the capacity
- effect on phenylephrine mediated contraction ([7]; rottlerin 1 μM): no significant effect
- reduction of phenylephrine mediated contraction ([7]; rottlerin 4 μM): > 50%
- PE induced constriction of the vessel ([7]; rottlerin (0.5 μM), p<0.001, representative of 4 experiments): significantly inhibited
- IC50 (casein kinase II): 30 to 100 µM
- fertility rate (guinea pigs): reduce the fertility rate
- IC50 (3T3-L1 adipocytes): 10 µM
- cerebral vasospasm [10]: inhibited the initial phase of cerebral vasospasm
- toxic effects [10]: No toxic effects
- IC50 (PKA): 30 to 100 µM
- Po (BKCa channels [11]; rottlerin (0.5 μM) by local perfusion): significantly increased
- open dwell time (BKCa channels [11]; rottlerin (0.5 βM) by local perfusion): significantly increased
- uncoupling of mitochondria ([12]; 10 μM): can uncouple mitochondria
- ATP levels ([12]; PKC independent): reduce ATP levels
- IC50 (other PKC isozymes): 30 to 100 µM
- single channel activity, outside-out patch (BKCa channel [8]; rottlerin 0.5 μM local perfusion to extracellular side, 0 Ca2+ (actual <20 nM)): activation of BKCa
- single channel activity, inside-out patch (BKCa channel [8]; rottlerin 0.5 μM local perfusion, 0 Ca2+): activation of BKCa
- channel conductance (BKCa channel [8]; rottlerin 0.5 μM, amplitude histograms): does not significantly change
- channel activity ([13]; HEK293 cells expressing both mSlo and β1 subunit): activated the channel
- I-V curve ([13]; rottlerin 0.5 μM, whole cell, 5 mM EGTA intra-pipette): significantly shifted the I-V curve to the left
- effect on PKCα activity (PKCα): virtually no effect
- effect on PKCδ activity (PKCδ [14]): virtually no effect
- blocking PKCδ activity in vitro (PKCδ [15]): ineffective
- IC50 (PKCδ [16]): 3 to 6 µM

Compound: C=C[C@]1(C)C=C2CC[C@@]3(O)C(C)(C)CC[C@H](O)[C@]3(C)C2CC1 (stereo partly shown) [Maxikdiol]
- membrane permeability [4]: limited
- concentration with significant effect on channel (maxi-K channels): 3 to 10 µM
- threshold concentration for channel activation (maxi-K channels): 1 µM

Compound: C[C@@H]1O[C@@H](O[C@H]2[C@H](O[C@H]3[C@H](O[C@H]4CC[C@@]5(C)[C@@H](CC[C@]6(C)[C@@H]5CC=C5[C@@H]7CC(C)(C)C[C@@H](O)[C@]7(C)CC[C@]56C)[C@@]4(C)CO)O[C@H](C(=O)O)[C@@H](O)[C@@H]3O)O[C@H](CO)[C@H](O)[C@@H]2O)[C@H](O)[C@H](O)[C@H]1O [soyasaponin I]
- BKCa channel activation (BKCa channels [2]): activate BKCa channels
